Earlier results as cited in US20120288569A1 (priority 2003, published 2012).

Key:
[1] = system: calcification in aortas and kidneys of rats; conditions: rats treated with large amount of vitamin D3

SMILES: O=P(O)(O)OP(=O)(O)O [PPi, pyrophosphate]
- uptake by the apatite crystals (PPi at 2 μm/L concentration): rapidly and almost completely taken up
- concentration that binds strongly to crystals of hydroxyapatite, inhibiting further precipitation of calcium phosphate (in vitro): ≥ 0.1 µM
- effect on calcification in aortas and kidneys [1]: inhibits calcification
